Source: patent publication US5342612A, “Compositions for the treatment of mammalian diseases” (priority 1991, dated 1994)

How the values were obtained:
S. aureus [1] = test: Potentiation of bacteriostatic activity of lysostaphin by vehicles (checkered analysis); format: cell-based, Staphylococcus aureus; settings: for Vehicle Conc. w/Max. Potentiation (%): with r-lysostaphin; for Character of potentiation: in words (footnotes, text); for Potentiation Index Compared to Lysostaphin: M.I.C. of r-lysostaphin in saline / M.I.C. in formulation with the vehicle
Text: In order to identify the nontoxic formulations for mammalian use, toxicity is employed as a method to eliminate direct bactericidal effects on the S. aureus, as well as potential toxic effects on the target animal. Compounds are formulated with r-lysostaphin at concentrations below toxic effects and compared to the bacteriostatic activity of r-lysostaphin in a saline formulation. Some compounds potentiate r-lysostaphin bacteriostatic activity by as much as 300-1000 fold.
Several surfactants, detergents, oils, emollients and membrane solubilizers are chosen as representative of various classes of compounds which may affect protein activity. These vehicles are then evaluated for toxicity and potentiation of the bacteriostatic effects of r-lysostaphin on S. aureus according to the methods described in the foregoing examples. […] Secondly, the vehicles are subjected to the toxicity test on murine cells in vitro. Viable cells are evaluated by trypan blue exclusion and normalized to an untreated control. Thereafter, dairy cattle are infused through the teat canal with various concentrations of the vehicle to make a determination of the irritation potential after intramammary infusion as a measure of mammalian toxicity. Milk samples are collected after infusion of said vehicles and the somatic cell count is determined. The Stimulation Index equals the post-infusion SCC divided by the pre-infusion SCC. The vehicles showing minimal toxicity to S. aureus and mammalian cells in vitro and in vivo are subsequent candidates for evaluation in the in vivo potentiation trials.
Various vehicle combinations are tested in a standard checkered analysis which simultaneously varies the concentration of both parameters to examine the individual contribution of each. Vehicles are all compared to r-lysostaphin in a saline solution, i.e., the potentiation index. […] Glycerol and triacetin, while only potentiating the activity of r-lysostaphin 6-8 fold, is manifested by bactericidal effects (see above Table IV).

S. aureus [2] = test: Potentiation of lysostaphin bactericidal activity (minimum bactericidal concentration assay, survival of S. aureus); format: cell-based, Staphylococcus aureus; settings: 18 h
Description: Preparation of 50% glycerol and 15% poloxamer 407 NF plus lysostaphin is as follows: The lysostaphin stock of 2.5 mg/mL is thawed and filtered through a 0.22μ filter. [formula]
In a similar fashion, triacetin solutions are also prepared.
Mueller-Hinton Broth containing lysostaphin is prepared as above. Penicillin in Mueller-Hinton Broth is prepared to serve as a control. Starting with a frozen 2.5 mg/mL stock solution the penicillin is diluted as follows: 400 μl of 2.5 mg/mL is placed in 600 μl of Mueller-Hinton Broth to yield a 1000 μg/mL solution. Added to 3744 μl of Mueller-Hinton Broth is 256 μl of the 1000 μg/mL solution to yield a 64 μg/mL solution.
Placed in sterile tubes are 2 mL of the vehicle and lysostaphin; Mueller-Hinton Broth plus lysostaphin; and Mueller-Hinton Broth plus penicillin. Serial two-fold dilutions are performed by hand using 1 mL of the appropriate vehicle as the diluent. Lysostaphin and penicillin dilutions range from 64 μg/mL to 0.25 μg/mL. All combinations are done in duplicate. The Staphylococcus aureus is grown for 5 hours in 5 mL of TSB and 0.1 mL is removed and placed in 9.9 mL of saline. Each tube is inoculated with 100 μl of the diluted culture. Plate counts are performed on the inoculum. All tubes are incubated for 18 hours at 37° C. with constant agitation. Following incubation, each dilution of lysostaphin in the vehicles or Mueller-Hinton Broth and penicillin in Mueller-Hinton Broth is diluted in phosphate buffered saline to 10^-2, 10^-4 and 10^-6.
Plated on a TSA with 10% sheep blood is 100 μl of the undilute and of each dilution. The plates are inverted and incubated for 18 hours. Following incubation, the number of colonies on each plate is counted.
The vehicles which inhibit the growth or are moderately bactericidal to S. aureus by themselves are unable to be evaluated using the MIC procedure. For these vehicles a minimum bactericidal concentration assay (MBC) is performed. This assay in conjunction with the previous MIC data distinguish bacteriostatic effects versus bactericidal effects of the vehicles. Various formulations are mixed with lysostaphin at a final concentration of 32 μg/mL. Ten, serial two- or four-fold dilutions of the lysostaphin are performed in the vehicle and each tube inoculated with a 2-6 x's 106 S. aureus CFU's (bacterial colony-forming units). Samples are removed after 18 hours and plated on blood agar plates.

[3] = system: Staphylococcus aureus mastitis (Newbould 305); test: Efficacy of lysostaphin formulated in vehicles as intramammary infusion against Staphylococcus aureus mastitis; format: in vivo, bovine (dairy cows)
Text: This experiment examines the ability of various lysostaphin formulations to eliminate S. aureus infections in the bovine mammary gland and compares the formulations with the testing of lysostaphin in a peanut oil-gel matrix, similar to that used in the commercial product CEFA-LAK®, which is used to treat mastitis in lactating dairy cows.
Lysostaphin is formulated in three vehicles: 15% w/v poloxamer 407 NF, 50% w/v glycerol or 10% w/v triacetin. Lysostaphin is also formulated in a peanut oil-gel matrix. These formulations are infused into the bovine mammary gland and the ability of these combinations to exact a biological response, either by curing the infection or by clearing the mammary gland temporarily of S. aureus, are assessed.
Recombinant lysostaphin is suspended in 10.0 mL of peanut oil vehicle or dissolved in 60.0 mL of appropriate sterile vehicle (sPBS) at a concentration of 10.0 mg/mL or 1.67 mg/mL, respectively. Each of 15% poloxamer 407 NF (PLURONIC® ACID F127, a polyoxyethylene-polyoxypropylene derivative, BASF Corporation, Parsippany, N.J.); 50% glycerol (Sigma Chemical Co., St. Louis, Mo.); and 10% triacetin (glyceryl triacetate, Sigma Chemical Co., St. Louis, Mo.) are prepared in sterile phosphate buffered saline.
Staphylococcus aureus infections of the mammary gland provide an excellent model system for evaluating therapeutic efficacy of a variety of pharmaceutical and biological agents for many infectious diseases of mammals. Therefore, experimental infections are established with S. aureus (strain Newbould 305). All mammary glands to be inoculated are free of pathogens and have individual quarter somatic cell counts (SCC) less than 200,000 cells/mL of milk. Inoculum is prepared from a four-hour culture grown in trypticase soy broth and diluted. Inoculations are made by infusion of 1.0 mL diluted culture containing 90 colony forming units of S. aureus (Newbould 305) into the teat cistern of a milked-out mammary quarter. Quarters which fail to establish an infection after six days from initial inoculation are reinfected.
Prepared in PBS is 50% glycerol and the solution is then sterile filtered (0.45μ). Poloxamer 407 NF is mixed overnight and prepared similarly. A 10% triacetin solution is prepared aseptically in sterile PBS. Appropriate amounts of lysostaphin is added so the final concentration is 1.67 mg/mL. All preparations are in a total volume of 60.0 mL and made the day of the infusion. All solutions are sterile filtered through a 0.45μ filter.
Duration of treatment: 3 consecutive PM milkings
Quarters are randomly assigned to one of six treatment groups. All quarters are infused with the appropriate vehicle (60.0 mL) with or without lysostaphin over three consecutive PM milkings. […]

[4] = Toxicosis following r-BoIL-2 and r-BoIL-1 formulated infusions; format: in vivo, dairy cattle; settings: in words
Text: Daily observations of dairy cattle are made for any signs of toxicosis following the beginning of treatment.

[5] = lysostaphin (or penicillin) 1 μg/mL
[6] = lysostaphin (or penicillin) 4 μg/mL

## CC(O)CO (stereo not shown) [Propylene Glycol]
S. aureus [1]
  Vehicle Conc. w/Max. Potentiation (%): 0.195%

## CC1(C)S[C@@H]2[C@H](NC(=O)Cc3ccccc3)C(=O)N2[C@H]1C(=O)O [Penicillin, reference compound]
S. aureus [2]; lysostaphin (or penicillin) 0.5 μg/mL
  Survival of S. aureus CFU (Log 10) in Vehicles: 4.2 CFU (Log 10)
S. aureus [2]; [5]
  Killing of S. aureus (footnote class): ^3 (Greater than 99.99% killing of S. aureus)
  Survival of S. aureus CFU (Log 10) in Vehicles: 2.5 CFU (Log 10)
S. aureus [2]; [6]
  Killing of S. aureus (footnote class): ^3 (Greater than 99.99% killing of S. aureus)
  Survival of S. aureus CFU (Log 10) in Vehicles: 3.1 CFU (Log 10)
S. aureus [2]; lysostaphin (or penicillin) 8 μg/mL
  Survival of S. aureus CFU (Log 10) in Vehicles: 0 CFU (Log 10)
S. aureus [2]; penicillin 0.5 μg/mL
  Killing of S. aureus (footnote class): ^3 (Greater than 99.99% killing of S. aureus)

## CCCCCCCC(=O)N(C)C[C@H](O)[C@@H](O)[C@H](O)[C@H](O)CO [Octanoyl-n-methylglucamid]
S. aureus [1]
  Vehicle Conc. w/Max. Potentiation (%): 0.31%

## OCC(O)CO [Glycerol]
[3]; 100 mg lysostaphin infusions on three consecutive days
  % Cures: 25%
[3]; in words
  Effect on potentiating the in vivo efficacy of lysostaphin: Neither glycerol nor triacetin (both have a cure rate of 25%) has any significant effect
S. aureus [1]
  Character of potentiation: Potentiates the bactericidal activity of rlysostaphin
  Vehicle Conc. w/Max. Potentiation (%): 50.0%

## CCCCCCCCCC(=O)N(C)C[C@H](O)[C@@H](O)[C@H](O)[C@H](O)CO [Decanoyl-n-methylglucamid]
S. aureus [1]
  Vehicle Conc. w/Max. Potentiation (%): 0.078%

## CCCCCCCCCCCCOC1O[C@H](CO)[C@@H](O)[C@H](O)[C@H]1O (stereo partly shown) [n-Dodecylglucosid]
S. aureus [1]
  Potentiation Index Compared to Lysostaphin: 1025.0
  Character of potentiation: Potentiation is eliminated when diluted fourfold
  Vehicle Conc. w/Max. Potentiation (%): 0.078%

## CCCCCCCCOC1O[C@H](CO)[C@@H](O)[C@H](O)[C@H]1O (stereo partly shown) [n-Octylglucosid]
S. aureus [1]
  Potentiation Index Compared to Lysostaphin: 1.0
  Vehicle Conc. w/Max. Potentiation (%): 0.039%

## CCCCCCCCCCCCO[C@@H]1O[C@H](CO)[C@@H](O[C@H]2O[C@H](CO)[C@@H](O)[C@H](O)[C@H]2O)[C@H](O)[C@H]1O [Dodecyl B-D-maltosid]
S. aureus [1]
  Vehicle Conc. w/Max. Potentiation (%): 0.0024%

B1: r-BoIL-2: recombinant bovine interleukin-2, Immunex Corporation, Seattle, Wash. (protein, UniProt P05016 21-155, looked up)
Interleukin-2: APTSSSTGNTMKEVKSLLLDLQLLLEKVKNPENLKLSRMHTFDFYVPKVNATELKHLKCLLEELKLLEEVLNLAPSKNLNPREIKDSMDNIKRIVLELQGSETRFTCEYDDATVNAVEFLNKWITFCQSIYSTMT
[4]; compared with PBS carrier
  Observable signs of toxicosis / adverse clinical signs: A decrease of adverse clinical signs are observed
[4]; in polyoxypropylene-polyoxyethylene block copolymer
  Side effects compared with r-BoIL-2 in PBS: substantially less detrimental to an animal than infusions of r-BoIL-2 in sterile phosphate buffered saline
